# What was measured:
# SV-MES mesangial cells = test: AAR activation in SV-MES mesangial (fibroblastic) cells; type: cell-based; settings: 2 hours
# Method: FIG. 11. HF induces a stress response in fibroblasts. SV-MES mesangial cells were stimulated for 2 hours with DMSO, 20 nM MAZ1310, or 20 nM HF. Whole cell lysates were analyzed for expression of phosphorylated or total eIF2α by western blotting.
# Duplicate cell samples are shown. […] Activated GCN2 phosphorylates eif2alpha at Ser 51; therefore, this is an expected downstream outcome of AAR activation.
# EPRS = test: Prolyl-tRNA charging by purified EPRS; type: biochemical, rat
# Description: FIG. 23E is a graph showing that HF inhibits purified EPRS activity. EPRS was purified from rat liver and assayed for prolyl-tRNA charging activity as previously described (Ting, S. M., Bogner, P. & Dignam, J. D. Isolation of prolyl-tRNA synthetase as a free form and as a form associated with glutamyl-tRNA synthetase. J Biol Chem 267, 17701-17709, (1992)). Data are representative of three separate experiments.
# The effects of HF on prolyl-tRNA charging was examined. RRL were supplemented with ^14C-Pro or ^35S-Met in the presence or absence of HF, and total tRNA was isolated (FIG. 23D).
# [1] = type: in vitro ADME; settings: mouse, 2 h, 20 nM
# Method: MEFs were incubated with the indicated concentration of HF in the presence or absence of 2 mM proline for 2 hours and then lysed. Lysates were then tested for HF levels in comparison to a standard curve using known concentrations of HF with an anti-HF antibody based ELISA assay (see Example 9, “Materials and Methods”). Error bars reflect standard deviation of triplicate determinations. Similar results were obtained in three separate experiments.
# Polyclonal anti-HF antibody was raised by immunizing rabbits with KLH coupled to an HF derivative (MAZ1356) containing a linker attached to the quinazolinone and terminated by a primary amino group. Crude antibody was affinity purified using MAZ1356 linked to NHS-agarose. For the ELISA assay, MAZ1356 was coupled to 96-well Reacti-bind Plates (Pierce). After binding, plates were blocked with 10% goat serum in PBS/0.2% Tween-20 (PBST). […] Captured antibody was quantitated using TMB based colorimetric detection (Pierce), and a standard curve for HF concentration fitted from the colorimetric data. […] To determine HF concentration in cells, 8 μl of cleared lysate (or control buffer) was incubated with anti-HF antibody in MAZ1356 bound wells, and captured antibody detected and quantitated as described above. HF concentration was then determined by fitting colorimetry results with cell samples to a standard curve of HF concentration. […]
# MEFs = test: Total protein synthesis and metabolic activity (Alamar blue) of fibroblasts; type: cell-based, mouse
# Method: FIG. 26D. HF-inhibition of collagen production is rescued by proline and doesn't affect overall protein synthesis. Cells were pre-incubated with HF with or without proline for 4 hours, and ^35S-methionine and HF with or without proline was added. 24 hours later, conditioned medium and total cell lysate was harvested. New production of Type I procollagen was measured in conditioned medium by Western blot, and bands quantitated using Image J quantitation software. The original blot is shown in FIG. 27; total protein synthesis was measured as TCA-precipitable ^35S in a scintillation counter. Error bars reflect standard deviation of triplicate determinations.
# FIG. 29. HF effect on cellular metabolic activity. MEFs were incubated at indicated dose of HF with or without 2 mM proline for 24 hours and tested for metabolic activity using an Alamar blue assay (Invitrogen).
# [2] = test system: amino acid starvation response in splenocytes; test: In vivo AAR activation in splenocytes of HF-injected mice; design: species or system mouse; settings: i.p. injection, 6 hours
# Method: FIG. 20F, left panel, depicts western blot analysis of protein from cells of wild-type mice injected i.p. with vehicle (DMSO) or […] HF. Spleens were harvested 6 hours post injection, red blood cells were removed by NH4Cl lysis buffer and immunoblotting for phosphorylated or total eIF2a was performed on whole cell extracts. FIG. 20F, right panel is a graph depicting levels of AAR-associated gene expression (Asns, Gpt2, eIF4Ebp1) analyzed by quantitative real-time PCR using cDNA from splenocytes of mice treated with DMSO or HF as above. Expression of AAR-associated transcripts were normalized to Hprt levels and data are presented as mean relative expression from duplicate samples ±SD. All data represent 2-3 similar experiments.
# luciferase = test: Standard luciferase assay; type: biochemical; settings: not shown
# EAE and CIA = settings: mouse, in vivo; cited from earlier work
compound,measurement,setting,value
"O=C(CC1NCCCC1O)Cn1cnc2cc(Br)c(Cl)cc2c1=O (racemic) [HF, halofuginone]",eIF2α phosphorylation in cultured fibroblasts,SV-MES mesangial cells; 20 nM HF,increased eIF2α phosphorylation
same,GCN2 Thr898 phosphorylation,SV-MES mesangial cells; 20 nM,activation of GCN2 phosphorylation
same,reconstituted prolyl-tRNA charging reaction with purified EPRS,EPRS,inhibited this reaction
same,absolute HF concentration inside cells,[1],~800 nM
same,total metabolic activity of fibroblasts,MEFs,unaffected
same,35S-methionine incorporation into total protein,"MEFs; doses inhibiting ECM proteins, 24 hours",did not significantly change
same,eIF2α phosphorylation and AAR-associated transcripts in splenocytes ex vivo,[2],increased eIF2α phosphorylation and expression of AAR-associated transcripts
same,direct effect on luciferase activity,luciferase,no direct effect
same,activity in EAE and CIA models,EAE and CIA,active in these models

# From patent US20120058133A1, “INHIBITION OF TRNA SYNTHETASES AND THERAPEUTIC APPLICATIONS THEREOF” (President and Fellows of Harvard College, priority 2009, published 2012)
